Reference: ChEMBL document CHEMBL5291721, “A preclinical secondary pharmacology resource illuminates target-adverse drug reaction associations of marketed drugs” (Nat Commun, 2023)

Legend:
[1] = target: T1, Adenosine receptor A3 (Homo sapiens, UniProt P0DMS8)
T1 sequence (P0DMS8 whole entry): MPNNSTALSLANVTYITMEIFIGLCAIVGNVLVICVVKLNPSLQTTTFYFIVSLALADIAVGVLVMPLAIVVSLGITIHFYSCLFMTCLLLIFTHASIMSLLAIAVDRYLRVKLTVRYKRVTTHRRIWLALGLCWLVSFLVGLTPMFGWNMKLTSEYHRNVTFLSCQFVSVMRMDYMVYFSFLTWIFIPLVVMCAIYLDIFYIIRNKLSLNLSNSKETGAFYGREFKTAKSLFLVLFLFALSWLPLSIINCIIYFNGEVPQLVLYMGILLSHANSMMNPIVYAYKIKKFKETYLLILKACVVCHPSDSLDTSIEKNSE

[2] = target: T2, Muscarinic acetylcholine receptor M2 (Homo sapiens, UniProt P08172); format: functional, cell-based
T2 sequence (P08172 whole entry): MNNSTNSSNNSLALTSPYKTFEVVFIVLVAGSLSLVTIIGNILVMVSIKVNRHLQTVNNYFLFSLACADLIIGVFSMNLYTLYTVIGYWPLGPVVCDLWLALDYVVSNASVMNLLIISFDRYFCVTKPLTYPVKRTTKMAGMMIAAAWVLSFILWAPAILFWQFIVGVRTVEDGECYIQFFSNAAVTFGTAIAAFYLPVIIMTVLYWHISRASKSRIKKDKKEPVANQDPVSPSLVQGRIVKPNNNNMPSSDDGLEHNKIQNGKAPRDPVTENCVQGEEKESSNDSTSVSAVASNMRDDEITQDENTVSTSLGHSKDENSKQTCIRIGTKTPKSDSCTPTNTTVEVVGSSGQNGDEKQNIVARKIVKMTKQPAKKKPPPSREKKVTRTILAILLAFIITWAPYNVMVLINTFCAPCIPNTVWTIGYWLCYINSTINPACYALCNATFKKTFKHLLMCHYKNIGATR

[3] = target: Delta-type opioid receptor (Homo sapiens, UniProt P41143)
Sequence of Delta-type opioid receptor (P41143 whole entry): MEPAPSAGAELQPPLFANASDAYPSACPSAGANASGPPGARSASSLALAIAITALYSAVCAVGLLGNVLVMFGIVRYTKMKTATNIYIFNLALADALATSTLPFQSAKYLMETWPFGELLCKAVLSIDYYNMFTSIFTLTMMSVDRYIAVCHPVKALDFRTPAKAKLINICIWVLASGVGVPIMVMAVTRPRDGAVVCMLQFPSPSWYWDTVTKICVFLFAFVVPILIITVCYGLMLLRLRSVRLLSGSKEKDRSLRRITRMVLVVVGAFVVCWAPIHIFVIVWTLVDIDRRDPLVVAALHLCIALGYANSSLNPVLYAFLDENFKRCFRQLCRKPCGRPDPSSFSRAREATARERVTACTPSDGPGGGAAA

[4] = target: T3, Prostaglandin G/H synthase 1 (Rattus norvegicus, UniProt Q63921); format: functional
T3 sequence (Q63921 whole entry): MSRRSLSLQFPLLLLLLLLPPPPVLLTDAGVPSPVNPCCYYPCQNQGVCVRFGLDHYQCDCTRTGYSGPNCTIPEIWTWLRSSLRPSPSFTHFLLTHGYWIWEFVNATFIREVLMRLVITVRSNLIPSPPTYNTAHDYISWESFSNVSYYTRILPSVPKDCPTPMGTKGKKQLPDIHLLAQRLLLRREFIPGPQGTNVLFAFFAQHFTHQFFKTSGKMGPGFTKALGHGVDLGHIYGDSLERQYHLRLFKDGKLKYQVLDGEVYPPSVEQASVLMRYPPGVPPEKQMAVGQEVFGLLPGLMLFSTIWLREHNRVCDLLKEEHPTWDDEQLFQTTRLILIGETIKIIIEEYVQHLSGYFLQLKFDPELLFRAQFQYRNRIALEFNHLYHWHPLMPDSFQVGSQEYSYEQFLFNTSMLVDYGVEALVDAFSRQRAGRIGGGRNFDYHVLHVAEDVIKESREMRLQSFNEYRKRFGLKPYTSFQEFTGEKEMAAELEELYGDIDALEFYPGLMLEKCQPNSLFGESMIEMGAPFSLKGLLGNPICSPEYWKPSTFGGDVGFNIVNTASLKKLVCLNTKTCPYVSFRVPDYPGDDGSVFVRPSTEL

[5] = target: Beta-2 adrenergic receptor (Homo sapiens, UniProt P07550)
Sequence of Beta-2 adrenergic receptor (P07550 whole entry): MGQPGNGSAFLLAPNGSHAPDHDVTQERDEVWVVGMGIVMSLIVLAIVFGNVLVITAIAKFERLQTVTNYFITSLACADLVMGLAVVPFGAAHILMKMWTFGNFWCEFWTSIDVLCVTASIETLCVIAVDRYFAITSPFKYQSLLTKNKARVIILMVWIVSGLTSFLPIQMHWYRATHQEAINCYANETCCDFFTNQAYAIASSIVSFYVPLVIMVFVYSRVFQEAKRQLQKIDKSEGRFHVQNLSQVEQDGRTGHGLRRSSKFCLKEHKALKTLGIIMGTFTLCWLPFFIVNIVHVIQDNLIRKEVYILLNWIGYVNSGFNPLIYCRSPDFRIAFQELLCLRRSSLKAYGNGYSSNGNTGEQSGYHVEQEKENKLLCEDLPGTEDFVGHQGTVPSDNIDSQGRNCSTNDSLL

[6] = target: Cannabinoid receptor 1 (Homo sapiens, UniProt P21554); format: functional, cell-based
Sequence of Cannabinoid receptor 1 (P21554 whole entry): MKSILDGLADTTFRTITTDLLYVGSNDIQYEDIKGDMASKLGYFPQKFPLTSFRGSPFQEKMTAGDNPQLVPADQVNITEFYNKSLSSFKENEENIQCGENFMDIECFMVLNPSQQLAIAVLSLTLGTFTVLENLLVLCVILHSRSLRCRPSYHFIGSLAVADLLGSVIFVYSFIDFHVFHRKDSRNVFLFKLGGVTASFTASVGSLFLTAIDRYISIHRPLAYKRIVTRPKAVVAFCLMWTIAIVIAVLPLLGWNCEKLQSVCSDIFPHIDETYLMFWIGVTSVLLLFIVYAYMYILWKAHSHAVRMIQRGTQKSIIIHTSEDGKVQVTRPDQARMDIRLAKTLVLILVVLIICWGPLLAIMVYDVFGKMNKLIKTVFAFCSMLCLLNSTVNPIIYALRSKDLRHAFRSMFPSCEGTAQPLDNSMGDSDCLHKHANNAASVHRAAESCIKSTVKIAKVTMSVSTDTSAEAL

[7] = target: T4, Estrogen receptor (Homo sapiens, UniProt P03372)
T4 sequence (P03372 whole entry): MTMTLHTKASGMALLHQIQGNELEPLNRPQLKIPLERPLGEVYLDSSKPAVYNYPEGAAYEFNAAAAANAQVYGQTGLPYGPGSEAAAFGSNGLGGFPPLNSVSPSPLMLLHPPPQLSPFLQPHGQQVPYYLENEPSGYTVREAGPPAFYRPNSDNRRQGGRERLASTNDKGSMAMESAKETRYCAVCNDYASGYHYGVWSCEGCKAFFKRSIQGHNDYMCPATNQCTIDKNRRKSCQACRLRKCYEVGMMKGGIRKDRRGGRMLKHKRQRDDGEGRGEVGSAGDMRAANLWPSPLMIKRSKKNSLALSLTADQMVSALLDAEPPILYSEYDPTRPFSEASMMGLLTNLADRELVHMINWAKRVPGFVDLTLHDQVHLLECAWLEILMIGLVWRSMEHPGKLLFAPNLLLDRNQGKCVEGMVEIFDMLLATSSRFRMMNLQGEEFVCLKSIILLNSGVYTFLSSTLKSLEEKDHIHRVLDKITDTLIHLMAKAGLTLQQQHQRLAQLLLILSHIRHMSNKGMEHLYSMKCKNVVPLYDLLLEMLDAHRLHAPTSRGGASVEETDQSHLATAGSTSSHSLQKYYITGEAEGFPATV

[8] = target: Growth hormone secretagogue receptor type 1 (Homo sapiens, UniProt Q92847)
Sequence of Growth hormone secretagogue receptor type 1 (Q92847 whole entry): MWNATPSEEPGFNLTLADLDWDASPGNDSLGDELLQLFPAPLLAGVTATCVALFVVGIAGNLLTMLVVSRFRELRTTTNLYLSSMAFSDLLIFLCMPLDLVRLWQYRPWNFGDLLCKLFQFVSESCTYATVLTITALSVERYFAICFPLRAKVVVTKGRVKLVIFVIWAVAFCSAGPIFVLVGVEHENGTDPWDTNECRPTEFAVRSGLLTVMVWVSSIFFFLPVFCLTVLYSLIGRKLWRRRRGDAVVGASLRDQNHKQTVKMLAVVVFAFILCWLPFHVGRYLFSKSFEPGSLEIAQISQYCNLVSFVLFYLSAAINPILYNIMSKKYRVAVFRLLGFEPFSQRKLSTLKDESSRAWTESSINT

[9] = target: Beta-1 adrenergic receptor (Homo sapiens, UniProt P08588); format: functional
Sequence of Beta-1 adrenergic receptor (P08588 whole entry): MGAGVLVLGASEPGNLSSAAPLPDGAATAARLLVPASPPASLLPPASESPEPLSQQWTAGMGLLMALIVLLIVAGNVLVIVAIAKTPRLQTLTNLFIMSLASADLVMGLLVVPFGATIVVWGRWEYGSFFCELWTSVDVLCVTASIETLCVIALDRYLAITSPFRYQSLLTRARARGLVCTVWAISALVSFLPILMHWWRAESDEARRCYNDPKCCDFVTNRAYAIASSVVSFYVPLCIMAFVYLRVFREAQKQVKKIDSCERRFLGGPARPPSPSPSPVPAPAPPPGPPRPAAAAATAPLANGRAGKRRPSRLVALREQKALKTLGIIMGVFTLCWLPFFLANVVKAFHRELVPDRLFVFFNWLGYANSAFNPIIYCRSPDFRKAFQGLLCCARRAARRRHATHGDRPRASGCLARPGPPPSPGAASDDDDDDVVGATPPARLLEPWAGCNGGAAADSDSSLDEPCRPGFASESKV

[10] = target: Vasopressin V1a receptor (Homo sapiens, UniProt P37288)
Sequence of Vasopressin V1a receptor (P37288 whole entry): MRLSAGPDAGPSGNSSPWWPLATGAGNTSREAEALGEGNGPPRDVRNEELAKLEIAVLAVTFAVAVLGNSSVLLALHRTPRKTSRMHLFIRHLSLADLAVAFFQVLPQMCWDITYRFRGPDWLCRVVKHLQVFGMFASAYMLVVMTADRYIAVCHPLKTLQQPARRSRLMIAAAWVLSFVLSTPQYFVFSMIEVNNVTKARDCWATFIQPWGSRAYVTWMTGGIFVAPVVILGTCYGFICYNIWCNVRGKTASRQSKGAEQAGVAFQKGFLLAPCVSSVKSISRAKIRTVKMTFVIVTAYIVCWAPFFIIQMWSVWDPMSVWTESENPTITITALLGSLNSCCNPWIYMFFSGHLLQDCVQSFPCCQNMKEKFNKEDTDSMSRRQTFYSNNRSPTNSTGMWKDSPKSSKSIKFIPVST

[11] = target: D(3) dopamine receptor (Homo sapiens, UniProt P35462)
Sequence of D(3) dopamine receptor (P35462 whole entry): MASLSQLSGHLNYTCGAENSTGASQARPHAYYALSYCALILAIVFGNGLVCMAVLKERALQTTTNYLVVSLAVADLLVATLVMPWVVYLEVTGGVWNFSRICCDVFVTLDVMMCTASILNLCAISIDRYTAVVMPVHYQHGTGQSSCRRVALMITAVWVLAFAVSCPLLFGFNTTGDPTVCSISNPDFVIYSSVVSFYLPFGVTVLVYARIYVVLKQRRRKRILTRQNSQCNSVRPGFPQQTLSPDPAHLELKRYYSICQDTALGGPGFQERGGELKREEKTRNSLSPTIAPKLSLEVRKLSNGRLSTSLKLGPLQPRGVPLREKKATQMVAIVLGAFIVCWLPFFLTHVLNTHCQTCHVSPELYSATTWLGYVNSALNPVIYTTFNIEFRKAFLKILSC

[12] = target: T5, Prostaglandin G/H synthase 1 (Homo sapiens, UniProt P23219); format: functional
T5 sequence (P23219 whole entry): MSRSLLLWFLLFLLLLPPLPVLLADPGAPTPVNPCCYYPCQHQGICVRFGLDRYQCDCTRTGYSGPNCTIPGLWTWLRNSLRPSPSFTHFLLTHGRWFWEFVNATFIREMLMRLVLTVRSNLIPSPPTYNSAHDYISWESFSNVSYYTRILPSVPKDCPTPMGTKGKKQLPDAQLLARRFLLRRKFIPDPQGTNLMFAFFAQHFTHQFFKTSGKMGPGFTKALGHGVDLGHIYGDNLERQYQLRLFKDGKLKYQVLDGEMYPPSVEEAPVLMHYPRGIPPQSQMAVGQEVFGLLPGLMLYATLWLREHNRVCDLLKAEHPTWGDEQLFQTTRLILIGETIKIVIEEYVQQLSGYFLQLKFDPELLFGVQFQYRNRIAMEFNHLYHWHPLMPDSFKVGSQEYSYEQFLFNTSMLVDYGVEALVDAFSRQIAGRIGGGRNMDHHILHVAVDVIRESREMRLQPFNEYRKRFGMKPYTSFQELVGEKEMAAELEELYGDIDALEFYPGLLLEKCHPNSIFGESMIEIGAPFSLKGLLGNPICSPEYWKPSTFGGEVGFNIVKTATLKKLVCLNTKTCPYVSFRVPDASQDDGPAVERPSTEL

[13] = target: Mu-type opioid receptor (Homo sapiens, UniProt P35372)
Sequence of Mu-type opioid receptor (P35372 whole entry): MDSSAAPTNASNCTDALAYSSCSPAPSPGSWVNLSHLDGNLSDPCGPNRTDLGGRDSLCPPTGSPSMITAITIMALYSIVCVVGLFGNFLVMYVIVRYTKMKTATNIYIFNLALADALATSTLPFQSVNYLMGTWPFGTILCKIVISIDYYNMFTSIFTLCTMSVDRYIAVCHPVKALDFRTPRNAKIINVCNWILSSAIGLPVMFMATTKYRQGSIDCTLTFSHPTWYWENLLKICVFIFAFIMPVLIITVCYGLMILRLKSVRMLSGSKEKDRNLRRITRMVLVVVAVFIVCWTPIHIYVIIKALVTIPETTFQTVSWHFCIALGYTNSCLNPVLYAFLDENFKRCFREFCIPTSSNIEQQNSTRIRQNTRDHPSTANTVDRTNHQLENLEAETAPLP

[14] = target: T5, Prostaglandin G/H synthase 1; format: functional; remark: listed apart in the source
Also: assay procedure not described here.

Row | Structure (SMILES) | AC50 [1] [µM] | AC50 [2] [µM] | AC50 [3] [µM] | AC50 [4] [µM] | AC50 [5] [µM] | AC50 [6] [µM] | AC50 [7] [µM] | AC50 [8] [µM] | AC50 [9] [µM] | AC50 [10] [µM] | AC50 [11] [µM] | AC50 [12] [µM] | AC50 [13] [µM] | AC50 [14] [µM]
1 | C[N+](C)(C)CCOP(=O)([O-])OC[C@H](O)CO | > 30 | > 30 | > 30 | > 30 | > 30 | > 30 | > 30 | > 30 | > 30 | – | – | – | – | –
2 | CN(C)Cc1nnc2n1-c1ccc(Cl)cc1C(c1ccccc1)=NC2 [ADINAZOLAM] | > 10 | > 10 | > 30 | > 10 | > 10 | – | > 10 | > 10 | > 10 | > 10 | – | – | – | –
3 | CN(C)C/C=C/C(=O)Nc1cc2c(Nc3ccc(F)c(Cl)c3)ncnc2cc1O[C@H]1CCOC1 [AFATINIB] | > 30 | > 30 | > 30 | > 30 | – | > 30 | > 30 | > 30 | > 30 | > 30 | – | – | – | –
4 | CC1=C(C(=O)OC(C)C)C(c2cccc([N+](=O)[O-])c2)C(C(=O)OC2CN(C(c3ccccc3)c3ccccc3)C2)=C(N)N1 (stereo unspecified) [AZELNIDIPINE] | 2.2 | > 30 | > 30 | 16 | > 30 | > 30 | > 3 | > 30 | 27 | > 30 | – | – | – | –
5 | CC(C)(Oc1ccc(CCNC(=O)c2ccc(Cl)cc2)cc1)C(=O)O [BEZAFIBRATE] | > 10 | > 10 | > 30 | > 10 | > 10 | > 30 | > 10 | > 10 | > 10 | > 10 | – | – | – | –
6 | CC(O)(CS(=O)(=O)c1ccc(F)cc1)C(=O)Nc1ccc(C#N)c(C(F)(F)F)c1 (stereo unspecified) [BICALUTAMIDE] | > 30 | > 10 | > 10 | > 30 | > 30 | > 30 | – | 2.2 | > 30 | > 30 | > 30 | > 30 | > 30 | > 30
7 | NC[C@H]1CC[C@H](C(=O)Oc2ccc(CCC(=O)O)cc2)CC1 [CETRAXATE] | – | > 30 | > 30 | – | – | > 30 | – | – | – | – | > 30 | > 30 | > 30 | > 30
8 | CC(=O)O[C@]1(C(C)=O)CC[C@H]2[C@@H]3C=C(Cl)C4=CC(=O)[C@@H]5C[C@@H]5[C@]4(C)[C@H]3CC[C@@]21C [CYPROTERONE ACETATE] | > 30 | – | > 30 | > 30 | > 10 | – | – | > 30 | > 10 | > 10 | > 30 | > 30 | > 30 | > 30
9 | C/C=C(/C(=C/C)c1ccc(O)cc1)c1ccc(O)cc1 [DIENESTROL] | 7.3 | > 10 | 21 | > 30 | > 10 | – | 0.0035 | > 10 | > 10 | > 10 | – | – | – | –
10 | CN[C@]1(c2ccccc2Cl)CCCCC1=O [ESKETAMINE] | > 30 | > 30 | > 30 | > 30 | > 30 | – | > 30 | > 30 | > 30 | > 30 | – | – | – | –
11 | C[C@@H]1C[C@H]2[C@@H]3C[C@H](F)C4=CC(=O)C=C[C@]4(C)[C@@]3(F)[C@@H](O)C[C@]2(C)[C@@]1(OC(=O)c1ccco1)C(=O)SCF [FLUTICASONE FUROATE] | > 10 | > 10 | > 30 | > 10 | > 10 | > 30 | – | > 10 | > 10 | > 10 | > 30 | 9.89 | > 30 | 27.7
12 | COc1ccc([C@@H]2CC(=O)c3c(O)cc(O)cc3O2)cc1O [HESPERETIN] | > 10 | > 10 | > 30 | 30.7 | > 10 | – | > 10 | > 10 | > 10 | > 10 | – | – | – | –
13 | CCOC(=O)C1=C(C)NC(C)=C(C(=O)OCC)C1c1ccccc1/C=C/C(=O)OC(C)(C)C [LACIDIPINE] | 15 | > 30 | > 30 | > 30 | > 30 | > 30 | > 30 | > 30 | > 30 | – | – | – | – | –
14 | C=C1c2cccc(O)c2C(=O)C2=C(O)[C@]3(O)C(=O)C(C(N)=O)=C(O)[C@@H](N(C)C)[C@@H]3[C@@H](O)[C@H]12 [METHACYCLINE] | > 30 | > 10 | > 30 | > 30 | > 10 | – | > 30 | > 30 | > 10 | > 30 | – | – | – | –
15 | O=C(O)c1cccnc1Nc1cccc(C(F)(F)F)c1 [NIFLUMIC ACID] | > 10 | > 10 | > 30 | 30 | > 10 | – | > 10 | > 10 | > 10 | – | – | – | – | –
16 | O=C1c2cccc3c2[C@H](CCC3)CN1[C@@H]1CN2CCC1CC2 [PALONOSETRON] | > 30 | > 30 | > 30 | > 30 | > 30 | – | > 30 | > 30 | > 30 | > 30 | – | – | – | –
17 | OC[C@H]1O[C@@H](n2cnc3c2NC=NC[C@H]3O)C[C@@H]1O [PENTOSTATIN] | 3.6 | > 30 | > 30 | 6.6 | – | > 30 | > 30 | > 30 | > 30 | > 30 | – | – | – | –
18 | CN[C@@H](C)[C@@H](O)c1ccccc1 [PSEUDOEPHEDRINE] | > 30 | > 10 | > 30 | > 30 | > 10 | – | > 30 | > 30 | > 10 | > 10 | – | – | – | –
